Assay results as given in publication PMC9794710, “Introduction of benzyloxy pharmacophore into aryl/heteroaryl chalcone motifs as a new class of monoamine oxidase B inhibitors” (Scientific Reports, 2022).
Like-named read-outs stand apart in the source and are kept apart here.

Experiments:
[1] = molecular target: T1, hMAO-A (Homo sapiens, UniProt P21397); assay: hMAO-A inhibitory activity assay (recombinant enzyme, kynuramine substrate); assay type: biochemical; details: kynuramine 0.06 mM; for remaining activity at 10 µM: 10 µM compound, read-out: Residual activity at 10 µM (%) hMAO-A
T1 construct: purchased Sigma-Aldrich (St. Louis, MO, USA)
T1 sequence (P21397 1-527): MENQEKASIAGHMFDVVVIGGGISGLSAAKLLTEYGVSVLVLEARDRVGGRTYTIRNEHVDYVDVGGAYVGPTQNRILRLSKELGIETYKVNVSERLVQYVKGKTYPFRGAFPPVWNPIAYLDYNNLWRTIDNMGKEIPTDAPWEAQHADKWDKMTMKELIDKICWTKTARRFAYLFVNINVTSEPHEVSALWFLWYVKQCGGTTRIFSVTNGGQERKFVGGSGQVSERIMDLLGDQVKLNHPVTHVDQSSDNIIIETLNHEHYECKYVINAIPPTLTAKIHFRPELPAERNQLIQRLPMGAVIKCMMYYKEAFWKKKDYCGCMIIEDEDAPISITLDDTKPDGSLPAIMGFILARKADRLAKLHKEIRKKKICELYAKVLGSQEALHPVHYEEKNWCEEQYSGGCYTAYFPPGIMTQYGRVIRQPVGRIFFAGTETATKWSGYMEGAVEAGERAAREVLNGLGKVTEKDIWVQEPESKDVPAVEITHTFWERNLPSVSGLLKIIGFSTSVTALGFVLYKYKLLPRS

[2] = molecular target: T2, hMAO-B (Homo sapiens, UniProt P27338); assay: hMAO-B inhibitory activity assay (recombinant enzyme, benzylamine substrate); details: for SI (selectivity index for hMAO-B as compared with hMAO-A): IC50 of hMAO-A/IC50 of hMAO-B; for remaining activity at 10 µM: read-out: Residual activity at 10 µM (%) hMAO-B;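 as to all read-outs here: benzylamine used at 0.3 mM as hMAO-B substrate, compounds first screened at 10 µM, hMAO-A assayed with 0.06 mM kynuramine for the selectivity ratio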
T2 sequence (P27338 1-520): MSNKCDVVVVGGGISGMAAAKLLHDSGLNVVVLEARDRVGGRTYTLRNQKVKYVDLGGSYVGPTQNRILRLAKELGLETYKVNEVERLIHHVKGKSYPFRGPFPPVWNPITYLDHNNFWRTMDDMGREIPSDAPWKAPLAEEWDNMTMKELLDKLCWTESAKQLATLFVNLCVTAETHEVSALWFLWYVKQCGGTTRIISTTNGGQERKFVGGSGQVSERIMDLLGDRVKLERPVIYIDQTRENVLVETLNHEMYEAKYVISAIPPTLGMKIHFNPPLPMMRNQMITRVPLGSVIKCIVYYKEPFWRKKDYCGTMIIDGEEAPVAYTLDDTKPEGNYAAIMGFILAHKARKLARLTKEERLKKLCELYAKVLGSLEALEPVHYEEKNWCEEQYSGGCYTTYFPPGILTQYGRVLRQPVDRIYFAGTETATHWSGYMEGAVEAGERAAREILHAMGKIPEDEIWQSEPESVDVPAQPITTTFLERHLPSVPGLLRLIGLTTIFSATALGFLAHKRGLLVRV

[3] = molecular target: T2, hMAO-B; assay: Reversibility analysis of hMAO-B inhibition by dialysis; assay type: biochemical; parameters: purchased Sigma-Aldrich (St. Louis, MO, USA); details: for Reversibility of hMAO-B inhibition: dialysis; for Relative activity of hMAO-B, undialyzed (AU) / Relative activity of hMAO-B, dialyzed (AD): preincubation 30 min at ~2 × IC50 (B10 0.134, B15 0.240, lazabemide 0.220, pargyline 0.280 μM); for Relative activity of hMAO-B, dialyzed (AD): after dialysis
[4] = molecular target: T2, hMAO-B; assay: Enzyme kinetic study of hMAO-B inhibition (Lineweaver–Burk and secondary plots); assay type: biochemical; parameters: purchased Sigma-Aldrich (St. Louis, MO, USA); details: for Type of hMAO-B inhibition: Lineweaver–Burk plots; for Ki: secondary plots, five substrate and three inhibitor concentrations
[5] = Parallel artificial membrane permeation assay (PAMPA) for BBB permeation; assay type: in vitro ADME; details: for Papp: pH 7.4, read-out: Experimental Pe
[6] = molecular target: T2, hMAO-B
[7] = parameters: method as in PMID 26587996; details: cited from earlier work

SMILES	remaining activity at 10 µM [1] [%]	IC50 [1] [µM]	IC50 [2] [µM]	SI (selectivity index for hMAO-B as compared with hMAO-A) [2]	remaining activity at 10 µM [2] [%]	Reversibility of hMAO-B inhibition [3]	Relative activity of hMAO-B, undialyzed (AU) [3] [%]	Relative activity of hMAO-B, dialyzed (AD) [3] [%]	Type of hMAO-B inhibition [4]	Ki [4] [µM]	Pe value [5]	Prediction (CNS permeation) [5]	Papp [5] [×10⁻⁶ cm/s]	SI (selectivity index for hMAO-B as compared with hMAO-A) [6]	bioavailability [7]
O=C(/C=C/c1ccc(OCc2ccccc2)cc1)c1ccc(C(F)(F)F)cc1 [Compound B13]	99.1 ± 1.24	> 40	0.255 ± 0.016	> 156.617	1.39 ± 3.27										
CS(=O)(=O)c1ccc(C(=O)/C=C/c2ccccc2OCc2ccccc2)cc1 [Compound B4]	78.2 ± 4.32	29.4 ± 2.71	0.233 ± 0.11	125.915	16.2 ± 6.49										
CCOc1ccc(C(=O)/C=C/c2ccc(OCc3ccccc3)cc2)cc1 [Compound B15]	75.9 ± 3.1	34.5 ± 3.54	0.12 ± 0.01	287.600	0	reversible inhibitors of hMAO-B	41.68	78.78	competitive inhibitors of hMAO-B	0.033 ± 0.001	higher than 4.0 × 10^–6 cm/s	CNS + (Pe (10^−6 cm/s) > 4.00: CNS + (high permeation))	4.09 ± 0.24		
O=C(/C=C/c1ccccc1OCc1ccccc1)c1ccc(C(F)(F)F)cc1 [Compound B12]	86.7 ± 2.68	> 40	37.6 ± 1.88	> 1.065	75.4 ± 3.6										
CCOc1ccc(C(=O)/C=C/c2ccccc2OCc2ccccc2)cc1 [Compound B14]	91.2 ± 6.2	> 40	11.3 ± 0.331	> 3.525	51.9 ± 1.31										
O=C(/C=C/c1ccc(OCc2ccccc2)cc1)c1ccc2c(c1)OCO2 [Compound B2]	53.1 ± 1.58	13.7 ± 1.53	0.626 ± 0.296		23.6 ± 0.96									21.933	
C#CCN(C)[C@H](C)Cc1ccccc1 [Selegiline, reference compound]												CNS + (Pe (10^−6 cm/s) > 4.00: CNS + (high permeation))			
CSc1ccc(C(=O)/C=C/c2ccccc2OCc2ccccc2)cc1 [Compound B6]	92 ± 2.93	> 40	6.55 ± 1.34	> 6.107	41.3 ± 4.9										
C[C@H](NCc1ccc(OCc2cccc(F)c2)cc1)C(N)=O [Safinamide]															about 95%
O=C(/C=C/c1ccccc1OCc1ccccc1)c1cccs1 [Compound B11]	81.3 ± 2.92	> 40	5.78 ± 2.39	> 6.915	41.2 ± 0.12										
O=C(/C=C/c1ccc(OCc2ccccc2)cc1)c1ccc(Br)s1 [Compound B9]	69.1 ± 1.54	24 ± 1.44	0.236 ± 0.017	101.551	0										
O=C(/C=C/c1ccccc1OCc1ccccc1)c1ccc2c(c1)OCO2 [Compound B1]	82.6 ± 5.03	26.9 ± 4.16	1.44 ± 0.149	18.677	35.5 ± 6.05										
CSc1ccc(C(=O)/C=C/c2ccc(OCc3ccccc3)cc2)cc1 [Compound B7]	58.4 ± 4.48	12.6 ± 0.898	0.149 ± 0.006	84.544	0										
O=C(/C=C/c1ccc(OCc2ccccc2)cc1)c1cccs1 [Compound B10]	76.7 ± 3.22	33.8 ± 6.89	0.067 ± 0.005	504.791	0	reversible inhibitors of hMAO-B	44.29	77.53	competitive inhibitors of hMAO-B	0.03 ± 0.001	higher than 4.0 × 10^–6 cm/s	CNS + (Pe (10^−6 cm/s) > 4.00: CNS + (high permeation))	4.93 ± 0.13		
CS(=O)(=O)c1ccc(C(=O)/C=C/c2ccc(OCc3ccccc3)cc2)cc1 [Compound B5]	89.2 ± 4.47	> 40	0.224 ± 0.082	> 178.651	0										
O=C(/C=C/c1ccccc1OCc1ccccc1)c1ccc(Br)s1 [Compound B8]	92.45 ± 0.49	> 40	17.9 ± 0.268	> 2.237	64.4 ± 1.5										
O=C(/C=C/c1ccc(OCc2ccccc2)cc1)c1ccc2c(c1)OCCO2 [Compound B3]	58.3 ± 0.84	14.3 ± 0.203	0.261 ± 0.016	54.663	0										
